# Measured values reported in ChEMBL document CHEMBL1201862, “PubChem BioAssay data set” (2004).
# Activity calls are given as the source filed them.
# Columns and labels:
# [1] = target: Prothrombin (Homo sapiens, UniProt P00734); test: Thrombin 1536 HTS Dose Response Confirmation. [Related pubchem assays: 1046 (Thrombin 1536 HTS; hits were confirmed in this assay)]; assay type: functional
# [2] = target: Cytochrome P450 3A4 (Homo sapiens, UniProt P08684);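 note: CYP3A4 tested as one member of a cytochrome P450 panel screen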
# [3] = target: T1, Caspase-6 (Homo sapiens, UniProt P55212); test: human caspase-6 inhibitors, dose response, biochemical, VEID-R110 fluorescence, cherry-pick (AID 720632)
# T1 sequence (P55212 whole entry): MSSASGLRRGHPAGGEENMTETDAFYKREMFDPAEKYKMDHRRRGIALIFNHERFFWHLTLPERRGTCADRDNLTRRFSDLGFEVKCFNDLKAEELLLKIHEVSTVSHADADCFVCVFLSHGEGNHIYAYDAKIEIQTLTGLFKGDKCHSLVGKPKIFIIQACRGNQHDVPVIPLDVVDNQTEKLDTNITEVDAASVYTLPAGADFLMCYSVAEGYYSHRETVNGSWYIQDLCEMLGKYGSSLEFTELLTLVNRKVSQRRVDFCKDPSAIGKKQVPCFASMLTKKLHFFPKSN
# [4] = Luminescence Cell-Based Dose Confirmation HTS to Identify Activators of 5'UTR Stem-Loop Driven Alpha-Synuclein mRNA Translation in H4 Neuroglioblastoma Cells. [Related pubchem assays: 1829 (Project Summary), 1814 (Primary HTS)]; assay type: functional
# [5] = Luminescence Cell-Based Dose Response HTS to Identify Activators of Luciferase Translation or Activity in H4 […] Cells. [Related pubchem assays: 1829 (Project Summary), 1814 (Primary HTS)]; assay type: functional
# [6] = test system: H4; test: Luminescence Cell-Based Dose Response HTS to Identify Activators of 5'UTR Stem-Loop Driven Prion Protein mRNA Translation in H4 Neuroglioblastoma Cells. [Related pubchem assays: 1829 (Project Summary), 1814 (Primary HTS)]; assay type: functional; details: Homo sapiens
# [7] = target: Mitogen-activated protein kinase 10 (Homo sapiens, UniProt P53779); test: Dose response biochemical screening assay for inhibitors of c-Jun N-Terminal Kinase 3 (JNK3). [Related pubchem assays: 746 ]
# [8] = Luminescence Cell-Based Dose Response to Identify Activators of 5'UTR Stem-Loop Driven Prion Protein mRNA Translation in H4-C Neuroglioblastoma Cells. [Related pubchem assays: 1829 (Project Summary), 1814 (Primary HTS)]; assay type: functional
# [9] = Luminescence Cell-Based Dose Response to Identify Activators of Luciferase Translation or Activity in H4-C Neuroglioblastoma Cells. [Related pubchem assays: 1829 (Project Summary), 1814 (Primary HTS)]; assay type: functional
# [10] = Luminescence Cell-Based Dose Confirmation to Identify Activators of 5'UTR Stem-Loop Driven Alpha-Synuclein mRNA Translation in H4 Neuroglioblastoma Cells. [Related pubchem assays: 1829 (Project Summary), 1814 (Primary HTS)]; assay type: functional
# [11] = P. falciparum Dd2 growth inhibitors, dose response, SYBR Green, cherry-picked samples (AID 1159567); assay type: functional, cell-based
# [12] = HepG2 cell cytotoxicity, dose response, cytotoxicity control, cherry-picked samples (AID 1159577); assay type: functional, cell-based
# [13] = P. falciparum 3D7-ScDHODH growth inhibitors, dose response, SYBR Green, dry powder samples (AID 1159570); assay type: functional, cell-based;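 note: parasite growth measured after 72 hours of compound exposure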
# [14] = P. falciparum Dd2 growth inhibitors, dose response, SYBR Green, dry powder samples (AID 1159566); assay type: functional, cell-based;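 note: potency for growth inhibition with lower SYBR green DNA signal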
# [15] = P. falciparum ATP4 D1247Y mutant growth inhibitors, dose response, NITD609-resistant line, SYBR Green, dry powder (AID 1159571); assay type: functional, cell-based;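 note: parasites synchronized at ring stage by sorbitol before testing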
# Sequence of Mitogen-activated protein kinase 10 (P53779 whole entry): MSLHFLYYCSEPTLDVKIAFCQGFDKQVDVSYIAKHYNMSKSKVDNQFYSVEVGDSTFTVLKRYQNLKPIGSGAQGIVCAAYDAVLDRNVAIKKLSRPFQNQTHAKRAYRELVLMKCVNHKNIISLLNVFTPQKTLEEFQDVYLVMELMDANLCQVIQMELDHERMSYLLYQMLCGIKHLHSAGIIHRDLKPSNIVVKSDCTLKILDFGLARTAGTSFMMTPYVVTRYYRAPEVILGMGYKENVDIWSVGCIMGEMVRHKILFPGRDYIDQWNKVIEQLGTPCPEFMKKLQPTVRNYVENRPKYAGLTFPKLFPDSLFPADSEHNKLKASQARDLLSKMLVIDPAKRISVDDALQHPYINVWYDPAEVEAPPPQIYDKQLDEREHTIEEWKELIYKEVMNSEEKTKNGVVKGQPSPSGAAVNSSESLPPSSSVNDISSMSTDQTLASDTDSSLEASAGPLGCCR
# Sequence of Cytochrome P450 3A4 (P08684 whole entry): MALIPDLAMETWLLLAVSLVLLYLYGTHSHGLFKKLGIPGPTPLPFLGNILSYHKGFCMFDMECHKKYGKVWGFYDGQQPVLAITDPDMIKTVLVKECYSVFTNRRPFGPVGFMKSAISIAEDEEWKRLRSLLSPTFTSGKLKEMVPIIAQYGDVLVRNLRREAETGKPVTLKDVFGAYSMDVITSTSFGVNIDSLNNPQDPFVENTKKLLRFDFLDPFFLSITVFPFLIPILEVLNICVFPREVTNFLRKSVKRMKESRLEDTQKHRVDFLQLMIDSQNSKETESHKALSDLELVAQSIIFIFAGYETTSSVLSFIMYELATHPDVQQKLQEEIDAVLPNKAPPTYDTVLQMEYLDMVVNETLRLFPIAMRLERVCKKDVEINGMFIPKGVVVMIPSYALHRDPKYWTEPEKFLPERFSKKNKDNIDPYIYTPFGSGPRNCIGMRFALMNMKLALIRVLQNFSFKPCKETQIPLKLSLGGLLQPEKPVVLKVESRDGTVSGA
structure (smiles),measurement,setting,value
COC(=O)CSc1nnc(-c2ccccc2OC)n1-c1ccc(C)cc1,IC50,[1],> 50 µM (not active)
same,AC50,[2],15.8 µM (inconclusive)
Cc1ccc(C)n1-c1sc2c(c1C(=O)O)CCCC2,AC50,[3],6.02 µM (active)
O=C1c2ccccc2C(=O)c2c([N+](=O)[O-])ccc(O)c21,AC50,[3],9.76 µM (active)
COc1ccc(NC(=O)n2nc(OC(=O)c3cccs3)cc2N)cc1,EC50,[4],> 60 µM (not active)
same,EC50,[5],12.1 µM (active)
same,EC50,[6],28.1 µM (active)
same,IC50,[1],12.7 µM (active)
O=C(CCCCCn1c(SCC(=O)c2ccccc2)nc2ccccc2c1=O)NCc1ccco1,IC50,[7],38.9 µM (not active)
COc1ccc(OC)c(C(=O)c2coc3ccc(O)cc23)c1,IC50,[7],> 93.1 µM (not active)
COC(=O)c1n[nH]c(NC(=O)c2ccccc2Br)n1,IC50,[1],0.082 µM (active)
Nc1nnc(CC(=O)N/N=C/c2cccc(OCCOc3ccccc3)c2)s1,EC50,[8],1.25 µM (active)
same,EC50,[5],< 0.1 µM (active)
same,EC50,[6],21.8 µM (active)
same,EC50,[9],0.88 µM (active)
same,EC50,[10],0.38 µM (active)
COc1cccc(S(=O)(=O)Nc2ccc3c(c2)[C@@H]2C[C@H](CC(=O)NCc4cccc(F)c4)O[C@@H](CO)[C@@H]2O3)c1,AC50,[11],6.43 µM (active)
same,AC50,[12],22.7 µM (active)
C[C@@H]1CN([C@H](C)CO)C(=O)c2c(c3ccccc3n2C)-c2ccccc2CO[C@H]1CN(C)Cc1ccc(Cl)c(Cl)c1,AC50,[11],3.7 µM (active)
same,AC50,[12],30 µM (active)
CC(C)CNC[C@@H]1[C@@H](c2ccccc2)[C@@H](CO)N1Cc1ccc(F)cc1,AC50,[13],3.03 µM (active)
same,AC50,[11],1.33 µM (active)
same,AC50,[14],0.409 µM (active)
same,AC50,[15],0.727 µM (active)
COc1ccc2c3c(n(C)c2c1)[C@H](CO)N(CC1CCCCC1)CC31CCN(Cc2nccs2)CC1,AC50,[13],1.26 µM (active)
same,AC50,[11],1.94 µM (active)
same,AC50,[14],1.62 µM (active)
same,AC50,[15],1.52 µM (active)
O=C(C1CCCCC1)N1CC(=O)N2[C@H](C1)[C@@H](c1ccc(C#Cc3cccc(F)c3)cc1)[C@@H]2CO,AC50,[11],4.26 µM (active)
same,AC50,[12],> 39 µM (inactive)
